Assay results taken from patent EP0315782A2, “Method for the production of proteins” (priority 1987, dated 1989).

Experiments:
Type in all cases: cell-based, chinesische Hamster
[1] = system: CHO-Zellen; assay: t-PA production in transformed CHO cells, medium with 7.5% FKS, supernatant, direct chromogenic assay (DCA); conditions: for activation at 1 µM / activation at 1000 µM: CHO; for activation at 1 µM: read-out: % Steigerung der t-PA-Synthese; for activation at 1000 µM: read-out: Steigerung der t-PA-Produktion
Text: (§1) Der Vektor für die t-PA-Produktion wurde in einem Subklon, CHO-K1-DUX B11, integriert (Urlaub et al., Proceedings of the National Academy of Science, USA, 77: 4216-4220, 1980). Diese Zell-Linie, eine Dihydrofolat Reduktase negative Mutante (DHFR-), ist für eine DHFR-abhängige Selektion der transfizierten Zellklone geeignet. Der Vektor für die humane c-DNA kann ein bekannter Plasmid-Vektor pBR-322 oder deren Abkömmling von Escherichia coli sein. Die Promotorregion für das in Frage kommende Gen und für das DHFR-Gen stammt aus SV 40 und die Terminationsregion für beide Gene von einem Hepatitis B-Oberflächenantigen. In den Beispielen wurden CHO-K1-DUX B11-Zellen, die durch die Plasmide pETPER oder pEPEFR transformiert sind, verwendet (siehe EP-A 0117059).
(§2) Die Zellkulturen werden bei 37°C in einem Hereaus-Brutschrank inkubiert und mit einem Kohlendioxid-Luftgemisch von 7,5% CO₂ in einer relativen Luftfeuchtigkeit von 100% belüftet. Je nach Verfahrensansatz werden unterschiedliche Kulturgefäße benutzt: Spinnergefäße für 100-1000 ml Medium, Roux-Schalen (Nunc) 175 cm² (70-100 ml Medium), 75 cm² (30-50 ml Medium), 25 cm² (7-10 ml Medium) und Mehrfachkulturschalen von Costar mit 2 cm² für 1 ml Kulturen. Für die Stammhaltung werden die Zellen in einer Dichte von 0,2-0,3 x 10⁶ Zellen/ml eingesetzt und alle 2-3 Tage subkloniert.
(§3) Die Protein-Produktion stimulierenden Substanzen können zu den verschiedenen Zeitpunkten jeweils in einer 1:100 Verdünnung zugegeben werden, d.h. sie wurden zuerst in Medium gelöst oder, wenn sie schwerlöslich sind, erst in Äthylalkohol gelöst und danach in Medium zugesetzt und dann das diese Substanz enthaltende Medium dem zellenthaltenden Medium im Verhältnis 1:100 v/v zugegeben.
(§4) In den folgenden Beispielen wurden, um die Stimulierung der t-PA-Synthese hervorzurufen, Zellen einer exponentiell wachsenden Kultur entnommen und in Plastikröhrchen (Falcon) 10 Min. bei 1000 x g in einer Beckmann T 3-6 Zentrifuge abzentrifugiert. Nach Dekantieren des Überstandes wurde das Zellpellet mit frischem Medium resuspendiert.
(§5) Für die Produktion von t-PA in serumhaltigem Medium wurde als frisches Medium F12/DMEM + 7,5% FKS + Gentamycin verwendet. Die resultierende Suspension kann in 2 cm² 24 Wells-Platten bei einer Zelldichte von 0,2-0,3 x 10⁶ Zellen/ml angesetzt werden.
(§6) Aliquots von Zellüberständen und Zellextrakten wurden zu verschiedenen Zeitpunkten abgenommen bzw. hergestellt. Die Messung der Proben erfolgte entweder sofort oder nach Aufbewahrung bei -20°C mit folgenden Methoden:
Von dem synthetischen Peptidsubstrat S-2288 (D-H-Ile-Pro-Arg-p-Nitroanilin) der Firma Kabi Diagnostica wird durch das t-PA p-Nitroanilin als Reaktionsprodukt gebildet. Die Aktivität von t-PA ist zur Bildung von p-Nitroanilin proportional, die bei […], 37°C, gemessen wird.
Die spektrophotometrische Bestimmung der Enzymkinetik wurde mit einem ACP-5010-Analysengerät der Firma Eppendorf automatisch durchgeführt.
Die Aktivität des Enzyms wurde anhand dieses vorgegebenen Standards berechnet. Eine t-PA-Standardreihe von 1-15 µg/ml wurde mit einem Laborstandard hergestellt, der zu 72% aus 1-kettigem Material besteht.
Die Substratlösung (100 mM Tris/106 mM NaCl) wurde in einer Konzentration von 50 mM eingesetzt.

[2] = system: CHO-Zellen; assay: t-PA production in transformed CHO cells, serum-free medium (DCA or determination method not given)
Text: Diese Zell-Linie, eine Dihydrofolat Reduktase negative Mutante (DHFR-), ist für eine DHFR-abhängige Selektion der transfizierten Zellklone geeignet. […] Die Promotorregion für das in Frage kommende Gen und für das DHFR-Gen stammt aus SV 40 und die Terminationsregion für beide Gene von einem Hepatitis B-Oberflächenantigen.
Im folgenden Beispiel wird ein nachseziertes DMEM/Ham's F 12 Medium (1:1) (Gibco) als serumfreies Medium verwendet. Als Zusatz wird fötales Kälberserum (FKS) in einer Konzentration von 7,5% oder 1-2% verwendet.
as §2, §3, §4
(§7) Für die Produktion von t-PA in serumfreiem Medium wurden die Zellen zuvor 3-4 Tage in einem Medium von 1-2% FKS adaptiert, wieder abzentrifugiert und das Zellpellet in serumfreiem Medium resuspendiert und anschließend in 2 cm² 24 Wells-Platten in einer Zelldichte von 0,4-0,5 x 10⁶ Zellen/ml überführt.
as §6
Die Aktivität des Enzyms wurde anhand dieses vorgegebenen Standards berechnet.

[3] = system: CHO-Zellen; assay: t-PA production in transformed CHO cells, serum-free medium, ELISA; conditions: for activation at 1 µM: CHO, Elisa, 1 ml supernatant vs control (0%), read-out: % Steigerung der t-PA-Synthese
Text: as §1
Als serumfreies Medium stehen verschiedene bekannte Produkte zur Verfügung (siehe z.B. BMFT-Statusseminar 12, 13. November 1985, Bundesministerium für Forschung und Technologie, 5300 Bonn 2, Seite 111-120). Im folgenden Beispiel wird ein nachseziertes DMEM/Ham's F 12 Medium (1:1) (Gibco) als serumfreies Medium verwendet. Als Zusatz wird fötales Kälberserum (FKS) in einer Konzentration von 7,5% oder 1-2% verwendet.
as §2, §3
as §4, with “resuspendiert. […]” for “resuspendiert.”
Mit Hilfe eines ELISA (Enzyme-linked-immuno-sorbent-assay) wurden die t-PA-Proben des Überstandes und des Zellextraktes quantitativ bestimmt. […]

[4] = system: CHO-Zellen; assay: Cell growth / cell division of transformed CHO cells
Procedure: as §2, §5, §7

[5] = system: CHO-Zellen; assay: t-PA production in transformed CHO cells, medium and determination method not stated
Text: as §1, §2, §3, §4
Aliquots von Zellüberständen und Zellextrakten wurden zu verschiedenen Zeitpunkten abgenommen bzw. hergestellt. Die Messung der Proben erfolgte entweder sofort oder nach Aufbewahrung bei -20°C mit folgenden Methoden: […]

[6] = system: CHO-Zellen; assay: t-PA production in transformed CHO cells, medium with 7.5% FKS, supernatant and cell extract, ELISA; conditions: for activation at 1000 µM: CHO
Text: as §1, §2, §3, §4, §5, §6
Mit Hilfe eines ELISA (Enzyme-linked-immuno-sorbent-assay) wurden die t-PA-Proben des Überstandes und des Zellextraktes quantitativ bestimmt. Als Standard diente ein Laborstandard in einer Konzentrationsreihe von 0,038-5 µg/ml. Die Proben wurden 1:10 bis 1:1000 vorverdünnt.

C[C@@]1(CO)[C@H](O)CC[C@@]2(C)[C@H]1CC[C@H]1C[C@@H]3C[C@@]12CC[C@]3(O)CO [Aphidicolin]
activation at 1 µM ([1]; 24 h): 40.2% | activation at 1 µM ([1]; 48 h): 59.9% | activation at 1 µM ([1]; 72 h): 32.8% | activation at 1 µM ([1]; 96 h): 14.7% | Maximum des Effekts nach Mediumwechsel ([2]; serum-free medium (Abb. 18)): 48 h | activation at 1 µM ([3]; Table 13, 1 µM, 144 h after medium change): 51.3% | activation at 1 µM ([3]; Tables 13/14, 1 µM, 96 h after medium change): 36.7% | activation at 1 µM ([3]; Tables 13/14, 1 µM, 120 h after medium change): 42% | inhibition at 1 µM ([4]; CHO, 1 µM, after 24 h treatment, read-out: Hemmung des Zellwachstums): 5 to 10% | t-PA-Ausbeute gesteigert ([5]; after 24 h, continued incubation with the substance): 44,9 ± 13,9% | intrazelluläre t-PA-Konzentration erhöht ([5]; during the 24 h incubation with the substance): ca. 30%

CCCC(=O)O [Na-Butyrat]
activation at 1000 µM ([1]; 48 h, Table 6, 1 mM at each medium change (Applikation Tag 0, 2, 4, 7), Mediumwechsel Tag 2, 1 ml supernatant vs control (0%)): 33% | activation at 1000 µM ([1]; 96 h, Table 6, 1 mM at each medium change (Applikation Tag 0, 2, 4, 7), Mediumwechsel Tag 4, 1 ml supernatant vs control (0%)): 107% | activation at 1000 µM ([1]; 168 h, Table 6, 1 mM at each medium change (Applikation Tag 0, 2, 4, 7), Mediumwechsel Tag 7, 1 ml supernatant vs control (0%)): 96.6% | activation at 1000 µM ([1]; 216 h, Table 6, 1 mM at each medium change (Applikation Tag 0, 2, 4, 7), Mediumwechsel Tag 9, 1 ml supernatant vs control (0%)): 62% | maximaler t-PA-Gehalt ([1]; DCA, supernatant (Abb. 9B)): 47,4 ± 7,4 µg t-PA/1 x 10⁶ Zellen | prozentuale Steigerung im Überstand ([1]; after 24 h, average of DCA and Elisa, vs control): 19,2% | maximale Steigerung der t-PA-Produktion ([1]; day 3, medium with 7,5% FKS (Abb. 7)): 37,2 ± 5,1% | activation at 1000 µM ([6]; 24 h, read-out: Stimulierung der t-PA-Synthese extrazellulär): 68.5% | activation at 1000 µM ([6]; 24 h, read-out: Stimulierung der t-PA-Synthese intrazellulär): 90.9% | activation at 1000 µM ([6]; 48 h, read-out: Stimulierung der t-PA-Synthese extrazellulär): 119% | activation at 1000 µM ([6]; 48 h, read-out: Stimulierung der t-PA-Synthese intrazellulär): 99.7% | activation at 1000 µM ([6]; 72 h, read-out: Stimulierung der t-PA-Synthese extrazellulär): 223% | activation at 1000 µM ([6]; 72 h, read-out: Stimulierung der t-PA-Synthese intrazellulär): 93.9% | activation at 1000 µM ([6]; 96 h, read-out: Stimulierung der t-PA-Synthese extrazellulär): 281% | activation at 1000 µM ([6]; 96 h, read-out: Stimulierung der t-PA-Synthese intrazellulär): 210% | t-PA-Konzentration im Überstand ([6]; Elisa, starting value of the rise during the first 4 days): 7,5 ± 1,1 µg t-PA/ 1 x 10⁶ Zellen | t-PA-Konzentration im Überstand ([6]; Elisa, value reached in the rise during the first 4 days): 28,9 ± 5,3 µg t-PA/ 1 x 10⁶ Zellen | Zunahme des intrazellulären t-PA-Gehaltes ([6]; after 24 h incubation, vs control (Abb. 8)): 43,8 ± 9,8% | intrazelluläre t-PA-Gehalt ([6]; value from which the content falls (until day 5) (Abb. 9C)): 1,5 ± 0,2 µg t-PA/1 x 10⁶ Zellen | Steigerung der t-PA-Synthese gegenüber der Kontrolle ([2]; serum-free medium, 1 day after application): 44,1 ± 7,1% | maximale Steigerung ([2]; serum-free medium, 3 days after application): 143,3 ± 12,8% | Steigerungseffekt ([2]; serum-free medium, 6 days after addition): 49,9 ± 7,0% | weitere Steigerung der t-PA-Synthese ([3]; in 1 µM Aphidicolin-treated cultures, after 96 h): 14%

O=C(O)CS [Thioglykolsäure]
activation at 1000 µM ([1]; 24 h, Table 9, 1 mM, Zeit 24 h, Applikationstag 0, 7,5% FKS, 1 ml supernatant vs control (0%)): 27.6% | activation at 1000 µM ([1]; 24 h, Table 9, 1 mM, Zeit 24 h, Applikationstag 1, 7,5% FKS, 1 ml supernatant vs control (0%)): 34.7% | activation at 1000 µM ([1]; 24 h, Table 9, 1 mM, Zeit 24 h, Applikationstag 2, 7,5% FKS, 1 ml supernatant vs control (0%)): 34.5% | activation at 1000 µM ([1]; 48 h, Table 9, 1 mM, Zeit 48 h, Applikationstag 0, 7,5% FKS, 1 ml supernatant vs control (0%)): 16.9% | activation at 1000 µM ([1]; 48 h, Table 9, 1 mM, Zeit 48 h, Applikationstag 1, 7,5% FKS, 1 ml supernatant vs control (0%)): 17.1% | activation at 1000 µM ([1]; 48 h, Table 9, 1 mM, Zeit 48 h, Applikationstag 2, 7,5% FKS, 1 ml supernatant vs control (0%)): 16.3% | activation at 1000 µM ([1]; 72 h, Table 9, 1 mM, Zeit 72 h, Applikationstag 0, 7,5% FKS, 1 ml supernatant vs control (0%)): 14.7% | activation at 1000 µM ([1]; 72 h, Table 9, 1 mM, Zeit 72 h, Applikationstag 1, 7,5% FKS, 1 ml supernatant vs control (0%)): 10.2% | activation at 1000 µM ([1]; 72 h, Table 9, 1 mM, Zeit 72 h, Applikationstag 2, 7,5% FKS, 1 ml supernatant vs control (0%)): 9.4% | activation at 1000 µM ([1]; 96 h, Table 9, 1 mM, Zeit 96 h, Applikationstag 0, 7,5% FKS, 1 ml supernatant vs control (0%)): 3.4% | activation at 1000 µM ([1]; 96 h, Table 9, 1 mM, Zeit 96 h, Applikationstag 1, 7,5% FKS, 1 ml supernatant vs control (0%)): 2.7% | activation at 1000 µM ([1]; 96 h, Table 9, 1 mM, Zeit 96 h, Applikationstag 2, 7,5% FKS, 1 ml supernatant vs control (0%)): 0.5% | optimaler Dosisbereich ([1]; Table 8, 7,5% FKS, bracketed value = concentration of the single sample): 1 mM | % Steigerung der t-Pa-Synthese Durchschnitt ([1]; Table 8, mean ± SE, n = 6-19, runs of 3 days, added day 0 to 2, 7,5% FKS, 1 ml supernatant vs control (0%)): 31,2 ± 3,2% | % Steigerung der t-Pa-Synthese Maximum ([1]; Table 8, single sample, 7,5% FKS, 1 ml supernatant vs control (0%)): 66,4% | t-PA-Produktion erhöht (Dauer) ([1]; duration of raised production after treatment, independent of application day): 72 h | Maximalwert des Steigerungseffektes erreicht nach ([1]; time to maximal effect (Abb. 15)): 24 h | maximale intrazelluläre t-PA-Konzentration ([6]; 1 mM, after 24 h (Abb. 17C)): 1,1 ± 0,1 µg/l x 10⁶ Zellen | activation at 1000 µM ([6]; 96 h, 1 mM, Elisa, per 1 x 10⁶ cells, day 4 (Abb. 17B), read-out: Steigerungsrate): ~35% | Hemmung der Zellteilung ([4]; serum-free medium): 10-20% | extrazelluläre t-PA-Konzentration gegenüber der Kontrolle gesteigert ([5]; day 5, medium not clearly stated): 10,7%
